# Results as given in patent publication US6372739B1, “Compounds and methods for modulation of estrogen receptors” (Signal Pharmaceuticals, Inc., priority 1998, dated 2002).
# Structures can show the parent of a compound that is named as a salt. Where two headings read alike, the source gives them in different places.
# What was measured:
# [1] = 3-day immature rat uterine bioassay; details: s.c.
# [2] = target: human recombinant ER-β (Homo sapiens, UniProt Q92731); assay: Solid phase ER binding assay (3H-estradiol competition), ER-β
# [3] = test system: IL-6; assay: Human bone cell co-culture system, IL-6 production; format: cell-based
# Protocol: The generation of osteoblastic cells from normal adult femoral travecular bone from patients without evidence of metabolic bone disease was carried out as previously described (Kung Sutherland et al., Osteoporosis International 5:334-343, 1995; Wong et al., J Bone Miner 5:803-813, 1990). Bone fragments were cleaned of adherent tissue and blood and cultured for 4 weeks in medium containing Ham's F12 supplemented with 28 mM HEPES, pH 7.4, 10% FCS, 1.1 mM CaCl2, 2 mM glutamine, and 1% antibiotic-antimycotic agent. Upon confluency, the cells were harvested and immortalized using a retroviral vector (pLXSN) containing the neomycin resistance gene and the human papillomaviral (HPV18) E6 and E7 concogenes (International Journal of Oncology 6:167-174, 1995). The immortalized osteoblastic cells were selected in medium containing G418 (600 μg/ml).
# The human U937 moncytic cell line (cloned from the commercially available cells by serial dilution) was maintained in RPMI 1640 medium containing 10% FCS and 1% antibiotic-antimycotic agent.
# The co-culture system was established as follows. Human osteoblastic cells were plated in 96-well dishes at a density of 5×10^3 cells/well. U937 cells in RPMI medium (5×10^4 cells/well) were layered over the osteoblasts. The formation of osteoclast-like cells was induced with 100 nM PMA. […]
# [4] = target: T1, human recombinant ER-α (Homo sapiens, UniProt P03372); assay: Solid phase ER binding assay (3H-estradiol competition), ER-α; details: HCl salt; similar to estradiol
# T1 sequence (P03372 1-595): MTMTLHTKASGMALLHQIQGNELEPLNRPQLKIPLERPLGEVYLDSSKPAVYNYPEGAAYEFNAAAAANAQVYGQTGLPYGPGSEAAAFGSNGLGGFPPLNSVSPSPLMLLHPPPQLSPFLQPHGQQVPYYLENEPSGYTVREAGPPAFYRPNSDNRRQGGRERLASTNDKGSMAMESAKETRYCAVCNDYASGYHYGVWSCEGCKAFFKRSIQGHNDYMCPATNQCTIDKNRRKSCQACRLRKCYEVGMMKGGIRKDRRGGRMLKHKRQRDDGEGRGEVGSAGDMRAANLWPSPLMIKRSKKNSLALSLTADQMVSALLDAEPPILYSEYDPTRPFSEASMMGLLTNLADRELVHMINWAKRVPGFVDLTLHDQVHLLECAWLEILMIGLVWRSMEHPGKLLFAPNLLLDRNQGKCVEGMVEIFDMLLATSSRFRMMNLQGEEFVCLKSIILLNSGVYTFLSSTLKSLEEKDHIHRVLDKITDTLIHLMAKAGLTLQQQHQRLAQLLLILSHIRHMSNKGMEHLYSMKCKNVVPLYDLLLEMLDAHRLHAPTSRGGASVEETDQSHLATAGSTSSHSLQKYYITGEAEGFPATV
# [5] = 28-day uterine bioassay in ovariectomized rats; details: rat, in vivo
# Protocol: All three componds were administered daily by s.c. injection. Estrogen prevented the uterine weight loss caused by ovariectomy by increasing the uterine weight by 550%. […] Raloxifene.HCl caused about a 70% increase in uterine weight which has been previously reported (Grese et al., supra; Ashby et al., supra). […] Thus, this compound has significant potential for the prevention and/or treatment of cancer and osteoporosis, as well as cardiovascular diseases and neurodegenerative diseases such as Alzheimer's disease.
# [6] = test system: GM-CSF; assay: Human bone cell co-culture system, GM-CSF production; format: cell-based; details: co-culture system of Example 8
# Protocol: The co-culture system was established as follows. Human osteoblastic cells were plated in 96-well dishes at a density of 5×10^3 cells/well. U937 cells in RPMI medium (5×10^4 cells/well) were layered over the osteoblasts. The formation of osteoclast-like cells was induced with 100 nM PMA. To determine the effects of compounds or the neutralizing antibodies to IL-6 (Sigma) and GM-CSF (Pharmingen) on the formation of osteoclast-like cells, the compounds or the antibodies were added 30 minutes prior to the addition of PMA. The cultures were stopped after 96 hrs and processed for histochemical or immunohistochemical analyses.
# Chain of human recombinant ER-β (Q92731 whole entry): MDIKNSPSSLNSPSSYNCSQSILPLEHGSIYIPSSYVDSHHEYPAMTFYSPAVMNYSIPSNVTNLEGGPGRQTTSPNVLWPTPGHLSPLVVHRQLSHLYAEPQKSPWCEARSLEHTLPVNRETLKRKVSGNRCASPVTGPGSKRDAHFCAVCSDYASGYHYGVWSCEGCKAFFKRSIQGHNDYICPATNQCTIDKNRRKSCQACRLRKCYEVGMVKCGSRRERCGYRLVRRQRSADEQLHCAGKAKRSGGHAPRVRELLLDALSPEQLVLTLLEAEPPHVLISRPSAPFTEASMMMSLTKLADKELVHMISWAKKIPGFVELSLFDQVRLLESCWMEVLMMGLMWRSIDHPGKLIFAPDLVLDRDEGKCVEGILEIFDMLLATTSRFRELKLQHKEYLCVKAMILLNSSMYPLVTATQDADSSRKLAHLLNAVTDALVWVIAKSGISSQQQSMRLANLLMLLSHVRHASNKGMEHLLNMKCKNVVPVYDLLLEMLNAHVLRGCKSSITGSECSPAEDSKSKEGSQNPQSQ
structure (smiles),measurement,setting,value
"O=c1oc2cc(O)ccc2c(Cc2ccc(OCCN3CCCCC3)cc2)c1-c1ccccc1 (as salt: HCl) [Compound No. 1, 3-Phenyl-4-[4-(2-{piperidin-1-yl})ethoxy]-benzyl-7-hydroxycoumarin]",melting point,,160 to 161 °C
"O=c1oc2cc(O)ccc2c(Cc2ccc(OCCN3CCCCC3)cc2)c1-c1ccccc1 [Compound No. 1, 3-Phenyl-4-[4-(2-{piperidin-1-yl})ethoxy]-benzyl-7-hydroxycoumarin]",increase in uterine weight,[1],~30%
same,"shape of dose response, uterine weight",[1],bell-shaped dose response
same,binding affinity to ER-β (in words),"[2]; HCl salt, similar to estradiol",high affinity
same,Ki,"[2]; competition with 30 nM 3H-estradiol, room temperature, 1 hour, average of at least 3 experiments, read-out: Solid Phase ER Binding Ki, ER-β",7.3 nM
same,IC50,"[3]; U-937, human osteoblast/U937 co-culture, PMA induced, read-out: IC50 with respect to IL-6",10 nM
same,binding affinity to ER-α (in words),[4],high affinity
same,increase in uterine weight,"[5]; female, sc, 28 day",~40%
same,uterine liability,[5],does not exhibit significant uterine liability
"C[C@]12CC[C@@H]3c4ccc(O)cc4CC[C@H]3[C@@H]1CC[C@@H]2O [Estradiol, 17β-estradiol]",increase in uterine weight,[1],4.5 fold
same,effect on production of IL-6,[3]; co-culture system of Example 8,suppress the production of IL-6
same,effect on production of GM-CSF,[6],reduced the production of GM-CSF
"COc1ccc2c(Cc3ccc(OCCN4CCCCC4)cc3)c(-c3ccccc3)c(=O)oc2c1 [Example 4, 3-Phenyl-4-[4-(2-{piperin-1-yl})ethoxy]-benzyl-7-methoxycoumarin]",melting point,,171 to 172 °C
"CCN(CC)CCOc1ccc(-c2c(-c3ccccc3)c(=O)oc3ccccc23)cc1 [L-20, reference compound]",Ki,"[2]; ER binding assay of Example 14, read-out: ER Binding Assay ER-β (Ki)",> 10000 nM
O=C(c1ccc(OCCN2CCCCC2)cc1)c1c(-c2ccc(O)cc2)sc2cc(O)ccc12 [Raloxifene HCl],"shape of dose response, uterine weight",[1],bell-shaped dose response
same,increase in uterine weight,[1]; 1 mg/kg dose,up to 50%
